Data: US10111875B2, “Pyrrolopyrimidine compounds and uses thereof” (HUTCHISON MEDIPHARMA LIMITED, priority 2010, dated 2018)
Read-outs that look alike come from different tables or passages of the source.

Molecular target: Recombinant human JAK1 catalytic domain (Homo sapiens (Human), UniProt P23458)
Experiment: JAK1 kinase assay (Z'-LYTE Tyr 6 Peptide)
Assay type: biochemical
Details: read-out: inhibition percentage (IR %)
Protocol: JAK1/2/3 kinase assay are performed in vitro using Kit-Tyr 6 Peptide (Invitrogen, Cat. No. PV4122). TYK2 kinase assay are performed in vitro using Z′-LYTE™ Kinase Assay Kit-Tyr 3 Peptide (Invitrogen, Cat. No. PV3192). […] All compounds are initially tested at 8 different concentrations (1 μM down to 0.0003 μM) using a 1:3 serial dilution scheme.

[1] = JAK1 kinase assay, 0.3 uM concentration

Recombinant human JAK1 catalytic domain, sequence (P23458 875-1153): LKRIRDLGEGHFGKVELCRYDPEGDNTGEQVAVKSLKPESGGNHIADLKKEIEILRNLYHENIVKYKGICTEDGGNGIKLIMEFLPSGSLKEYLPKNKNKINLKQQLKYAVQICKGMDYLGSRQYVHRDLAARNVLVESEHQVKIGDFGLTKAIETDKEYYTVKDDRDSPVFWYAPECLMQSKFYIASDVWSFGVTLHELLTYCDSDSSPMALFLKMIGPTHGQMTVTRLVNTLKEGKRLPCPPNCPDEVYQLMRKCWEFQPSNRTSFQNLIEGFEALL

| Compound | inhibition at 0.3 µM [1] [%] | inhibition at 0.3 µM [%] |
| --- | --- | --- |
| CN(c1ccc(C(=O)Nc2cccnc2)cn1)[C@@H]1CCN(c2ncnc3[nH]ccc23)C1 [Compound 198] | 20 to 50 |  |
| CN(c1ccc(-c2cn[nH]c2)cn1)[C@@H]1CCN(c2ncnc3[nH]ccc23)C1 [Compound 150] | 50 to 100 |  |
| CN(C(=O)CCc1c(Cl)cccc1Cl)[C@@H]1CCN(c2ncnc3[nH]ccc23)C1 [Compound 21] | 50 to 100 |  |
| CN(c1ncc(C#N)cc1[N+](=O)[O-])[C@@H]1CCN(c2ncnc3[nH]ccc23)C1 [Compound 96] | 50 to 100 |  |
| N#Cc1ccc2c(c1)CCN2C1CCN(c2ncnc3[nH]ccc23)C1 (stereo not drawn) [Compound 46] | 50 to 100 |  |
| CN(c1ccc(S(=O)(=O)N2CCCC2)cn1)[C@@H]1CCN(c2ncnc3[nH]ccc23)C1 [Compound 247] | 50 to 100 |  |
| CN(c1ccc(S(=O)(=O)NC2CCOCC2)cn1)[C@@H]1CCN(c2ncnc3[nH]ccc23)C1 [Compound 259] | 50 to 100 |  |
| CN(C(=O)c1cccc(C#N)c1)[C@@H]1CCN(c2ncnc3[nH]ccc23)C1 [Compound 8] | 20 to 50 |  |
| CN(c1c(F)c(F)c(C#N)c(F)c1F)[C@@H]1CCN(c2ncnc3[nH]ccc23)C1 [Compound 117] | 50 to 100 |  |
| CN(c1ncc(C#N)cc1Cl)[C@@H]1CCN(c2ncnc3[nH]ccc23)C1 [Compound 83] | 50 to 100 |  |
| CN(c1ccc(C#N)nc1)[C@@H]1CCN(c2ncnc3[nH]ccc23)C1 [Compound 76] | 20 to 50 |  |
| CN(c1ccc(-c2nn[nH]n2)cn1)[C@@H]1CCN(c2ncnc3[nH]ccc23)C1 [Compound 160, (R)—N-(1-(7H-pyrrolo[2,3-d]pyrimidin-4-yl)pyrrolidin-3-yl)-N-methyl-5-(2H-tetrazol-5-yl)pyridin-2-amine] | 20 to 50 |  |
| CN(c1cc(F)c(C#N)c(F)c1)[C@@H]1CCN(c2ncnc3[nH]ccc23)C1 [Compound 106] | 50 to 100 |  |
| CCN(c1ccc(C#N)cc1F)[C@@H]1CCN(c2ncnc3[nH]ccc23)C1 [Compound 133] | 50 to 100 |  |
| C[C@@H](O)CNS(=O)(=O)c1ccc(N(C)[C@@H]2CCN(c3ncnc4[nH]ccc34)C2)nc1 [Compound 244] | 50 to 100 |  |
| CN(C(=O)N1CCC[C@@H]1C(N)=O)[C@@H]1CCN(c2ncnc3[nH]ccc23)C1 [Compound 35] | 20 to 50 |  |
| COc1cc2ncnc(N(C)[C@@H]3CCN(c4ncnc5[nH]ccc45)C3)c2cc1OC [Compound 86] | 50 to 100 |  |
| CN(C(=O)Cc1ccc(C#N)cc1)[C@@H]1CCN(c2ncnc3[nH]ccc23)C1 [Compound 20] | 50 to 100 |  |
| CN(C(=O)Nc1ccc(Cl)cc1)[C@@H]1CCN(c2ncnc3[nH]ccc23)C1 [Compound 33] | 50 to 100 |  |
| CN(c1ccc(S(C)(=O)=O)cc1)[C@@H]1CCN(c2ncnc3[nH]ccc23)C1 [Compound 120, (R)—N-methyl-N-(4-(methylsulfonyl)phenyl)-1-(7H-pyrrolo[2,3-d]pyrimidin-4-yl)pyrrolidin-3-amine] | 20 to 50 |  |
| CN(c1ccc(Cl)cn1)[C@@H]1CCN(c2ncnc3[nH]ccc23)C1 [Compound 67] | 50 to 100 |  |

| Compound | inhibition at 0.3 µM [1] [%] | inhibition at 0.3 µM [%] |
| --- | --- | --- |
| N#Cc1ccc(N(CC2CC2)[C@@H]2CCN(c3ncnc4[nH]ccc34)C2)nc1 [Compound 124] | 50 to 100 |  |
| CCN(c1ccc(S(C)(=O)=O)cn1)[C@@H]1CCN(c2ncnc3[nH]ccc23)C1 [Compound 44] | 20 to 50 |  |
| CN(c1ccc2nc[nH]c2n1)[C@@H]1CCN(c2ncnc3[nH]ccc23)C1 [Compound 163, (R)—N-(1-(7H-pyrrolo[2,3-d]pyrimidin-4-yl)pyrrolidin-3-yl)-N-methyl-3H-imidazo[4,5-b]pyridin-5-amine] | 50 to 100 |  |
| COc1nccc(N(C)[C@@H]2CCN(c3ncnc4[nH]ccc34)C2)n1 [Compound 141] | 20 to 50 |  |
| CN(c1ccc2[nH]c(=O)[nH]c2n1)[C@@H]1CCN(c2ncnc3[nH]ccc23)C1 [Compound 164, (R)-5-((1-(7H-pyrrolo[2,3-d]pyrimidin-4-yl)pyrrolidin-3-yl)(methyl)amino)-1H-imidazo[4,5-b]pyridin-2(3H)-one] | 50 to 100 |  |
| CN(c1ccc(C#N)c(Cl)c1)[C@@H]1CCN(c2ncnc3[nH]ccc23)C1 [Compound 116] |  | 20 to 50 |
| CN(c1ccc(C(=O)NC(CO)c2ccc(Cl)cc2)cc1F)[C@@H]1CCN(c2ncnc3[nH]ccc23)C1 (stereo partly drawn) [Compound 201] | 50 to 100 |  |
| CN(c1ccc(S(=O)(=O)NCC2CC2)cn1)[C@@H]1CCN(c2ncnc3[nH]ccc23)C1 [Compound 235] | 50 to 100 |  |
| CN(c1ccc(C(=O)NCCO)cn1)[C@@H]1CCN(c2ncnc3[nH]ccc23)C1 [Compound 190] | 50 to 100 |  |
| CN(c1ccc(C(=O)N[C@H](CO)c2ccccc2)cn1)[C@@H]1CCN(c2ncnc3[nH]ccc23)C1 [Compound 174] | 50 to 100 |  |
| N#CCN(C1CCCC1)[C@@H]1CCN(c2ncnc3[nH]ccc23)C1 [Compound 45] | 50 to 100 |  |
| CN(c1ccc(S(=O)(=O)Nc2ccn(C)n2)cn1)[C@@H]1CCN(c2ncnc3[nH]ccc23)C1 [Compound 250] | 20 to 50 |  |
| CN(c1ccc(C(=O)NC(CO)c2ccccc2Cl)cc1F)[C@@H]1CCN(c2ncnc3[nH]ccc23)C1 (stereo partly drawn) [Compound 207] | 50 to 100 |  |
| C=CCN(C1CCCC1)[C@@H]1CCN(c2ncnc3[nH]ccc23)C1 [Compound 40] | 50 to 100 |  |
| CCOc1cnc(N(C)[C@@H]2CCN(c3ncnc4[nH]ccc34)C2)cn1 [Compound 136] | 50 to 100 |  |
| CN(c1ccc(NS(=O)(=O)Cc2ccccc2Cl)cn1)[C@@H]1CCN(c2ncnc3[nH]ccc23)C1 [Compound 223] | 50 to 100 |  |
| COc1ccc(NC(=O)c2ccc(N(C)[C@@H]3CCN(c4ncnc5[nH]ccc45)C3)nc2)cc1 [Compound 183] | 50 to 100 |  |
| CN(c1ccc(NS(=O)(=O)Cc2ccc(Cl)cc2)cn1)[C@@H]1CCN(c2ncnc3[nH]ccc23)C1 [Compound 225] | 50 to 100 |  |
| CN(c1ccc(C#N)cc1Cl)[C@@H]1CCN(c2ncnc3[nH]ccc23)C1 [Compound 112] | 50 to 100 |  |
| CN(c1ccc(C#N)cc1N)[C@@H]1CCN(c2ncnc3[nH]ccc23)C1 [Compound 166, (R)-4-((1-(7H-pyrrolo[2,3-d]pyrimidin-4-yl)pyrrolidin-3-yl)(methyl)amino)-3-aminobenzonitrile] | 20 to 50 |  |
| CN(c1ccc(C#N)cc1C(F)(F)F)[C@@H]1CCN(c2ncnc3[nH]ccc23)C1 [Compound 109] | 20 to 50 |  |

| Compound | inhibition at 0.3 µM [1] [%] | inhibition at 0.3 µM [%] |
| --- | --- | --- |
| CN(c1ccc(C(=O)NCc2ccccc2)cc1F)[C@@H]1CCN(c2ncnc3[nH]ccc23)C1 [Compound 187] | 50 to 100 |  |
| CN(c1ccc(C(=O)Nc2ccc(Cl)cc2)cn1)[C@@H]1CCN(c2ncnc3[nH]ccc23)C1 [Compound 193] | 20 to 50 |  |
| CN(c1ccc(C#N)c2ccccc12)[C@@H]1CCN(c2ncnc3[nH]ccc23)C1 [Compound 111] | 50 to 100 |  |
| Cc1ccc(NC(=O)c2ccc(N(C)[C@@H]3CCN(c4ncnc5[nH]ccc45)C3)nc2)cc1 [Compound 186] | 50 to 100 |  |
| CN(c1ccc(S(=O)(=O)N2CCOCC2)cn1)[C@@H]1CCN(c2ncnc3[nH]ccc23)C1 [Compound 252] | 50 to 100 |  |
| CCS(=O)(=O)Nc1ccc(N(C)[C@@H]2CCN(c3ncnc4[nH]ccc34)C2)nc1 [Compound 210, (R)—N-6-((1(7H-pyrrolo[2,3-d]pyrimidin-4-yl)pyrrolidin-3-yl)(methyl)(amino)pyridin-3-yl)ethanesulfonamfide] |  | 50 to 100 |
| CN(c1ccc(C#N)c(Cl)n1)[C@@H]1CCN(c2ncnc3[nH]ccc23)C1 [Compound 90] | 50 to 100 |  |
| CN(c1ccc(C#N)cc1F)[C@@H]1CCN(c2ncnc3[nH]ccc23)C1 [Compound 103, (R)-4-((1-(7H-pyrrolo[2,3-d]pyrimidin-4-yl)pyrrolidin-3-yl)(methyl)amino)-3-fluorobenzonitrile] | 50 to 100 |  |
| CNS(=O)(=O)c1ccc(N(C)[C@@H]2CCN(c3ncnc4[nH]ccc34)C2)nc1 [Compound 239] | 50 to 100 |  |
| CN(c1ccc(C(=O)Nc2ccccc2F)cn1)[C@@H]1CCN(c2ncnc3[nH]ccc23)C1 [Compound 192] | 50 to 100 |  |
| C#CCN(c1cnc(C#N)cn1)[C@@H]1CCN(c2ncnc3[nH]ccc23)C1 [Compound 127] | 50 to 100 |  |
| Cc1cc([N+](=O)[O-])cnc1N(C)[C@@H]1CCN(c2ncnc3[nH]ccc23)C1 [Compound 75] | 20 to 50 |  |
| N#CCN(C1CCC1)[C@@H]1CCN(c2ncnc3[nH]ccc23)C1 [Compound 52] | 50 to 100 |  |
| CN(c1ncc([N+](=O)[O-])cc1Cl)[C@@H]1CCN(c2ncnc3[nH]ccc23)C1 [Compound 74] | 50 to 100 |  |
| CN(c1ccc(S(=O)(=O)NC[C@@H]2CCCO2)cn1)[C@@H]1CCN(c2ncnc3[nH]ccc23)C1 [Compound 257] | 20 to 50 |  |
| CN(C)C(=O)c1ccc(N(C)[C@@H]2CCN(c3ncnc4[nH]ccc34)C2)nc1 [Compound 173] | 20 to 50 |  |
| CN([C@@H]1CCN(c2ncnc3[nH]ccc23)C1)S(=O)(=O)c1ccc([N+](=O)[O-])cc1 [Compound 11] | 20 to 50 |  |
| CN(c1ccc(Br)cn1)[C@@H]1CCN(c2ncnc3[nH]ccc23)C1 [Compound 68] | 50 to 100 |  |
| CN(c1ccc(NCc2ccc(F)cc2)cn1)[C@@H]1CCN(c2ncnc3[nH]ccc23)C1 [Compound 230, (R)—N^5-(4-fluorobenzyl)-N^2-(1-(7H-pyrrolo[2,3-d]pyrimidin-4-yl)pyrrolidin-3-yl)-N^2-methylpyridine-2,5-diamine] |  | 50 to 100 |
| CN(c1ccc(C(=O)Nc2cccc(F)c2)cn1)[C@@H]1CCN(c2ncnc3[nH]ccc23)C1 [Compound 177] | 50 to 100 |  |
| C#CCN(C1CCOC1)[C@@H]1CCN(c2ncnc3[nH]ccc23)C1 (stereo partly drawn) [Compound 56] | 50 to 100 |  |
